# Laboratory results reported in paper PMC6058673, “Comparison of hyaluronic acid-based micelles and polyethylene glycol-based micelles on reversal of multidrug resistance and enhanced anticancer efficacy in vitro and in vivo” (Drug Delivery, 2018).
# Values joined by “and” are separate entries in the source; they are usually repeats but may differ in a detail not shown here. Equal entries are not always repeated.
# Tests used:
# 4T1 tumor-bearing mice [1] = experiment: Serum CK, CKMB, LDH and AST (organ toxicity) by ELISA kit; type: in vivo, BALB/c mice; conditions: 4T1-bearing mice, end of experiment; DOX-Sol vs saline, others vs DOX-Sol
# Description: The toxicity of DOX formulations in vivo were evaluated by enzyme-linked immunosorbent assay (ELISA) kit. At the end of the experiment, the blood of each mouse was extracted by eyeballs and the serum was separated. Then, the activities of creatine kinase (CK), creatine kinase MB (CKMB), lactate dehydrogenase (LDH) and aspartate transaminase (AST) in serum were evaluated to investigate the organ toxicity.
# MCF-7/Adr cells = experiment: MTT cytotoxicity assay and MDR reversal in multidrug-resistant MCF-7/Adr cells; type: cell-based; conditions: for resistant index (RI): MCF-7/Adr vs MCF-7; for IC50: Homo sapiens, NCI/ADR-RES, MCF-7/Adr, DOX concentration
# Description: The sensitive MCF-7 and multidrug-resistant MCF-7/Adr cells were obtained from Nanjing Kaiji Biotech. Ltd. Co. (Jiangsu, China). Cells were cultured in RPMI-1640 medium containing 10% (v/v) FBS and 1% penicillin–streptomycin at 37 °C with 5% CO2. Additionally, MCF-7/Adr cells were incubated in medium with 1 μg/mL DOX.
# The cytotoxicity of various formulations against MCF-7 and MCF-7/Adr cells was assessed by MTT assay. Briefly, MCF-7 and MCF-7/Adr cells were seeded in 96-well plates at a density of 5 × 10^4 cells/well/0.1 mL 1640 culture medium and cultured for 24 h. Then, the cells were treated with DOX-Sol, DOX + Cur, HA-PMs, TPGS2k-PMs and HA/TPGS2k-PMs with multiple concentrations of DOX for 48 and 72 h, respectively. The cells incubated with medium only were utilized as control. At time interval, 20 μL MTT (5 mg/mL) was added and incubated for another 4 h. After that, the medium of each well was discarded and added 200 μL DMSO. The absorbance of each well was measured at 570 nm using a microplate reader. Half-maximal inhibitory concentration (IC50), the resistant index (RI) and reversal factor (RF) were calculated and used to evaluate MDR reversal effects by micelles(Ling et al., [2010]; Wang et al., [2012]).
# 4T1-bearing Balb/C mice = experiment: In vivo biodistribution in tumor-bearing mice; conditions: 4T1-bearing mice, 2 h after i.v. 10 mg DOX/kg and 10 mg Cur/kg
# Description: After 2 h administration, the mice were sacrificed, and the tumor, heart, liver, lung, and kidney were excised, weighed, homogenized in 0.5 mL methanol, centrifuged and analyzed by LC-MS/MS. Meanwhile, for qualitative analysis, the tumors were frozen in cryoembedding media (OCT) and sectioned at 20 μm. The sections were fixed with 4% paraformaldehyde for 10 min, stained for nuclei with DAPI, and observed by CLSM.
# 4T1 tumor-bearing mice [2] = experiment: In vivo antitumor efficacy, body weight and survival; parameters: species or system BALB/c mice; conditions: 4T1-bearing mice, i.v. 10 mg/kg DOX
# Description: The antitumor efficacy and safety in vivo were evaluated using 4T1 tumor-bearing mice. Briefly, 1 × 10^6 4T1 cells were subcutaneously injected into the right axilla of the female BALB/c mice. […] Body weights and tumor volumes (V = ab^2/2, where a was major axis and b was minor axis measured by slide caliper) were measured every two days after administration. At the end of the experiment, mice were sacrificed, and then the tumors were excised, weighted and photographed.
# [3] = In vivo pharmacokinetics after intravenous injection; conditions: rat, i.v., DOX 5 mg/kg and Cur 5 mg/kg, analyte DOX
# Description: Male Sprague–Dawley rats were randomly assigned to five groups (five rats per group). DOX-Sol, DOX + Cur, TPGS2k-PMs, HA-PMs and HA/TPGS2k-PMs were injected intravenously with at the dose of 5 mg/kg DOX and 5 mg/kg Cur, respectively. About 300 μL of blood samples were collected from the orbital venous plexus and immediately centrifuged to obtain the plasma fraction. Plasma samples were extracted through methanol protein precipitation method before analyzed by LC–MS/MS system.
structure (smiles),measurement,setting,value
"COc1cccc2c1C(=O)c1c(O)c3c(c(O)c1C2=O)C[C@@](O)(C(=O)CO)C[C@@H]3O[C@H]1C[C@H](N)[C@H](O)[C@H](C)O1 [DOX-Sol, Doxorubicin]","values of CKMB, CK, LDH and AST in serum",4T1 tumor-bearing mice [1],significantly higher than those in saline-treated groups
same,resistant index (RI),"MCF-7/Adr cells; 48h, listed as DOX",142 and 142.01
same,resistant index (RI),MCF-7/Adr cells; 72h,89.82
same,IC50,MCF-7/Adr cells; 48h,106 µg/mL
same,IC50,MCF-7/Adr cells; 72h,45.8 µg/mL
same,DOX accumulation in tumor,4T1-bearing Balb/C mice,low DOX accumulation
same,death of mice during treatment,4T1 tumor-bearing mice [2]; 10 mice per group,five mice suddenly died after nine days treatment
same,body weight change,4T1 tumor-bearing mice [2],markedly decreased
same,V of DOX,[3],0.03 ± 0.02 L/kg
